The values that follow come from paper PMC11901381 (Future Medicinal Chemistry, 2025).

One may read the IC50 as the concentration that inhibits the measured activity by half.

One data set in a line: General. The data set is classed as cell-based. The following applies: African green monkey, Vero cells (monkey kidney epithelial cells).
A short description of data set [1]: Host cell toxicity, resazurin assay. The following applies: human. The data set is classed as cell-based. For orientation: Alamar Blue is a resazurin reagent that responds to reducing activity.
Data set [2] is described as follows: Animal cytotoxicity, CCK-8 assay. The data set is classed as cell-based, bovine. The following applies: bovine, MDBK (Madin-Darby bovine kidney) cells. (Tetrazolium assays rely on reduction of a dye to a coloured formazan, in cell work by metabolically active cells.)
For data set [3], the system named is L. donovani strain 9515 promastigotes. Nature of the data set: Antipromastigote resazurin assay. The data set is classed as cell-based, Leishmania donovani.
In data set [4] the test system is L. major strain NIH S promastigotes. Nature of the data set: Antipromastigote resazurin assay. The data set is classed as cell-based, Leishmania major.
Data set [5] has as its system L. major strain NIH S intramacrophage amastigotes. Nature of the data set: Intramacrophage antileishmanial resazurin assay. The data set is classed as cell-based, Leishmania major. The following applies: L. major.
Data set [6] relates to T. brucei gambiense strain IL1922. Nature of the data set: Antitrypanosomal assay. The following applies: IC50 of MDBK/IC50 of trypanosome. The data set is classed as cell-based, Trypanosoma brucei gambiense.
The test system of data set [7] is T. brucei rhodesiense strain IL1501. Nature of the data set: Antitrypanosomal assay. The data set is classed as cell-based, Trypanosoma brucei rhodesiense. The following applies: IC50 of MDBK/IC50 of trypanosome.
Data set [8] has as its system T. brucei brucei strain GUTat3.1. As to the kind of experiment: Antitrypanosomal assay. The data set is classed as cell-based, Trypanosoma brucei brucei. The following applies: for SI Tbb GuTat3.1: IC50 of MDBK/IC50 of trypanosome; for IC50: read-out: Antitrypomastigote activity IC50 ± SD Tbb GuTat3.1.
In another data set the test system is Trypanosoma spp. As to the kind of experiment: Antitrypanosomal assay, several species. The data set is classed as cell-based. The following applies: read-out: IC50 against several Trypanosoma spp.
Another data set has as its system MDBK cells. As to the kind of experiment: Animal cytotoxicity, CCK-8 assay. The data set is classed as cell-based, bovine. The following applies: read-out: Cytotoxicity IC50 ± SD MDBK; MDBK cells; three biological replicates.
Data set [9] concerns T. congolense strain IL3000. Nature of the data set: Antitrypanosomal assay. The data set is classed as cell-based, Trypanosoma congolense. The following applies: IC50 of MDBK/IC50 of trypanosome.
Data set [10] relates to T. equiperdum strain IVM-t1. Nature of the data set: Antitrypanosomal assay. The data set is classed as cell-based, Trypanosoma equiperdum.

Like-named read-outs stand apart in the source and are kept apart here.

For `O=Cc1cn(Cc2ccc(F)cc2)c2ccc([N+](=O)[O-])cc12` [2e, 1-(4-Fluorobenzyl)-5-nitro-1 H-indole-3-carbaldehyde], the IC50 was greater than 100 µM in the data set “General”; greater than 100 µM in [1]; greater than 335 µM in [2]; 15 ± 8.48 µM in data set [8] (Trypanosoma brucei); 20 to 40 µM in the data set with Trypanosoma spp.. In addition, the “AG (activity gain)” value in [3] (IC50 (1)/IC50 (compd.), L. donovani promastigotes) was 0.5; in [4] (IC50 (1)/IC50 (compd.), L. major promastigotes) it was 0.5. Moreover, the SI1 in data set [3] (SI1 = IC50 Vero/IC50 promastigote, L. donovani) worked out at 1. Also, the SI4 in data set [4] (SI4 = IC50 Vero/IC50 promastigote, L. major) stood at 1. In data set [5] (SI5 = IC50 Vero/static IC50 amastigote), this compound yielded an SI5 of 8. For the same compound, the SI6 in [5] (SI6 = IC50 Vero/cidal IC50 amastigote) was found to be 8. This compound showed a SpI3 in data set [5] (SpI3 = IC50 promastigote/static IC50 amastigote) of 7. The SpI4 in [5] (SpI4 = IC50 promastigote/cidal IC50 amastigote) is reported as 8. Further, in [6], the “SI Tbg IL1922” value came to 15. The “SI Tbr IL1501” value in [7] is recorded as 4. The “SI Tbb GuTat3.1” value in data set [8] is reported as 22.

`CC(=O)NCC(=O)O.CC(=O)NCC(=O)O.N=C(N)c1ccc(N=NNc2ccc(C(=N)N)cc2)cc1` [Diminazine aceturate, diminazene aceturate, reference compound]: the IC50 was greater than 355 µM in the data set on MDBK cells; 0.068 µM in data set [8] (three biological replicates); 0.022 ± 0.002 µM in [10] (read-out: Antitrypomastigote activity IC50 ± SD Teq IVM-t1, three biological replicates). Besides, the “SI Tbg IL1922” value in data set [6] came out at 33333. Moreover, the “SI Tbr IL1501” value in data set [7] is on record as 9091. In addition, the “SI Tbb GuTat3.1” value in data set [8] worked out at 5263. Moreover, in data set [9], the “SI Tc IL3000” value was determined as 4000. Moreover, in data set [10] (IC50 of MDBK/IC50 of trypanosome), the “SI Teq IVM-t1” value stood at 16340.
